Holding throughout (type): functional
Assay [1] has as its system Rattus norvegicus. Briefly: Anti-inflammatory activity in sc dosed Sprague-Dawley Rattus norvegicus (rat) assessed as inhibition of carrageenan-induced paw edema administered at 1 hr prior to carrageenan injection measured at 1 hr post-carrageenan challenge by water plethysmometer. A general note: Carrageenan injected into the paw causes an acute inflammation.
For assay [2], the system named is Rattus norvegicus. Briefly: Anti-inflammatory activity in sc dosed Sprague-Dawley Rattus norvegicus (rat) assessed as inhibition of carrageenan-induced paw edema administered at 1 hr prior to carrageenan injection measured at 3 hr post-carrageenan challenge by water plethysmometer.
In assay [3] the test system is Rattus norvegicus. Briefly: Anti-inflammatory activity in sc dosed Sprague-Dawley Rattus norvegicus (rat) assessed as inhibition of carrageenan-induced paw edema administered at 1 hr prior to carrageenan injection measured at 2 hr post-carrageenan challenge by water plethysmometer.
Assay [4] has as its system Rattus norvegicus. As to the kind of experiment: Anti-inflammatory activity in sc dosed Sprague-Dawley Rattus norvegicus (rat) assessed as inhibition of carrageenan-induced paw edema administered at 1 hr prior to carrageenan injection measured at 4 hr post-carrageenan challenge by water plethysmometer.
Assay [5] deals with Rattus norvegicus. Briefly: Anti-inflammatory activity in Sprague-Dawley Rattus norvegicus (rat) assessed as inhibition of carrageenan-induced paw edema at 70 mg/kg, sc administered at 1 hr prior to carrageenan injection measured at 2 hr post-carrageenan challenge by water plethysmometer. The note with it: route subcutaneous.
Assay [6] has as its system Rattus norvegicus. As to the kind of experiment: Anti-inflammatory activity in Sprague-Dawley Rattus norvegicus (rat) assessed as inhibition of carrageenan-induced paw edema at 70 mg/kg, sc administered at 1 hr prior to carrageenan injection measured at 3 hr post-carrageenan challenge by water plethysmometer. The note with it: route subcutaneous.
The test system of assay [7] is Rattus norvegicus. As to the kind of experiment: Anti-inflammatory activity in Sprague-Dawley Rattus norvegicus (rat) assessed as inhibition of carrageenan-induced paw edema at 70 mg/kg, sc administered at 1 hr prior to carrageenan injection measured at 4 hr post-carrageenan challenge by water plethysmometer. The note with it: route subcutaneous.
Assay [8] has as its system Rattus norvegicus. As to the kind of experiment: Anti-inflammatory activity in Sprague-Dawley Rattus norvegicus (rat) assessed as inhibition of carrageenan-induced paw edema administered at 70 mg/kg, sc at 1 hr prior to carrageenan injection measured at 1 hr post-carrageenan challenge by water plethysmometer. The note with it: route subcutaneous.

One may read the inhibition in vivo as the relative decrease from the control value, in per cent.

On to `COc1ccc(-n2c(-c3ccccc3)c(-c3ccccc3)c3c2ncn2nnnc32)cc1`, for which the “inhibition (INH)” value in the assay with Rattus norvegicus [1] is recorded as 0%; with Rattus norvegicus [2], 19.7%; with Rattus norvegicus [3], 0%; with Rattus norvegicus [4], 39.21%.
As for `COc1ccc(-n2cc(-c3ccccc3)c3c(Cl)ncnc32)cc1`, the “inhibition (INH)” value was 13.4% with Rattus norvegicus [1], 32.9% in the assay on Rattus norvegicus [2], 17.3% with Rattus norvegicus [3] and 18.89% in the assay on Rattus norvegicus [4].
Take `Cc1ccc(-n2c(-c3ccccc3)c(-c3ccccc3)c3c2ncn2nnnc32)cc1`: the “inhibition (INH)” value amounted to 5.65% with Rattus norvegicus [1], 26.83% in the assay on Rattus norvegicus [2], 11.54% in the assay with Rattus norvegicus [3] and 31.59% with Rattus norvegicus [4].
For the compound `COc1ccc(-n2c(-c3ccccc3)c(-c3ccccc3)c3c(Cl)ncnc32)cc1`, the “inhibition (INH)” value with Rattus norvegicus [1] came out at 0%; in the assay on Rattus norvegicus [2], 33.64%; in the assay with Rattus norvegicus [3], 0%; with Rattus norvegicus [4] it was 45.39%.
As for `Cc1ccc(-n2c(-c3ccccc3)c(-c3ccccc3)c3c(N/N=C/c4ccccc4)ncnc32)cc1`, the “inhibition (INH)” value in the assay on Rattus norvegicus [1] was found to be 0%; in the assay with Rattus norvegicus [2] it was 15.44%; in the assay with Rattus norvegicus [3], 0%; in the assay on Rattus norvegicus [4], 32.8%.
`COc1ccc(-n2c(-c3ccccc3)c(-c3ccccc3)c3c(N/N=C/c4ccccc4)ncnc32)cc1`: the “inhibition (INH)” value in the assay with Rattus norvegicus [1] is given as 17.39%; in the assay on Rattus norvegicus [2], 54.04%; in the assay with Rattus norvegicus [3] it was 32.31%; in the assay with Rattus norvegicus [4], 62.96%.
For `Cc1ccc(-n2c(-c3ccccc3)c(-c3ccccc3)c3c(NN)ncnc32)cc1` the same measures were 0%, 29.6%, 0% and 18.57%.
Taken in the same sequence, the figures for `Cc1ccc(-n2cc(-c3ccccc3)c3c(-n4nc(C)cc4C)ncnc32)cc1` were 8.7%, 31.37%, 2.56% and 59.25%.
For `Cc1ccc(-n2cc(-c3ccccc3)c3c(N/N=C/c4ccccc4)ncnc32)cc1` the same measures were 0%, 27.7%, 0% and 41.8%.
In the case of `COc1ccc(-n2c(-c3ccccc3)c(-c3ccccc3)c3c(NN)ncnc32)cc1`, the “inhibition (INH)” value in the assay with Rattus norvegicus [1] is given as 13.48%; in the assay with Rattus norvegicus [2], 61.4%; in the assay with Rattus norvegicus [3] it was 16.92%; with Rattus norvegicus [4], 62.38%.
Taken in the same sequence, the figures for `COc1ccc(-n2c(-c3ccccc3)c(-c3ccccc3)c3c2ncn2c(=O)[nH]nc32)cc1` were 1.45%, 18.5%, 10.38% and 36.5%.
For `Cc1ccc(-n2c3c(c(-c4ccccc4)c2-c2ccccc2)C2=NNC(=O)CN2C=N3)cc1` the same measures were 17.39%, 28.31%, 23.08% and 34.92%.
Consider `Cc1ccc(-n2cc(-c3ccccc3)c3c(NN)ncnc32)cc1`, for which the “inhibition (INH)” value is given as 0% in the assay on Rattus norvegicus [1], 45.4% with Rattus norvegicus [2], 0% in the assay with Rattus norvegicus [3] and 39.21% in the assay on Rattus norvegicus [4].
`Cc1ccc(-n2c(-c3ccccc3)c(-c3ccccc3)c3c2ncn2c(=O)[nH]nc32)cc1`: the “inhibition (INH)” value in the assay with Rattus norvegicus [1] is given as 0%; with Rattus norvegicus [2], 19.7%; in the assay with Rattus norvegicus [3] it was 0%; in the assay with Rattus norvegicus [4] it was 42.85%.
Turning to `COc1ccc(-n2c(-c3ccccc3)c(-c3ccccc3)c3c2ncn2c(C)nnc32)cc1`, the “inhibition (INH)” value was found to be 0% in the assay with Rattus norvegicus [1], 14.15% with Rattus norvegicus [2], 0% in the assay with Rattus norvegicus [3] and 28.25% in the assay on Rattus norvegicus [4].
For `Cc1ccc(-n2c(-c3ccccc3)c(-c3ccccc3)c3c2ncn2c(=S)[nH]nc32)cc1`, the “inhibition (INH)” value was 0% with Rattus norvegicus [1], 17.27% in the assay on Rattus norvegicus [2], 10.38% with Rattus norvegicus [3] and 23.81% with Rattus norvegicus [4].
Taken in the same sequence, the figures for `Cc1ccc(-n2cc(-c3ccccc3)c3c2ncn2cnnc32)cc1` were 0%, 10.48%, 0% and 28.57%.
Consider `CC(C)Cc1ccc(C(C)C(=O)O)cc1` (stereo unspecified) [IBUPROFEN], for which the inhibition in vivo at 70 mg/kg in the assay on Rattus norvegicus [5] was 45%; with Rattus norvegicus [6] it was 60.7%; with Rattus norvegicus [7], 69.5%; with Rattus norvegicus [8], 6.08%.
For `Cc1ccc(-n2cc(-c3ccccc3)c3c2ncn2c(C)nnc32)cc1`, the “inhibition (INH)” value is on record as 11.74% with Rattus norvegicus [1], 29.5% in the assay with Rattus norvegicus [2], 18.85% with Rattus norvegicus [3] and 32.85% in the assay with Rattus norvegicus [4].
Consider `COc1ccc(-n2c(-c3ccccc3)c(-c3ccccc3)c3c2ncn2c(=S)[nH]nc32)cc1`, for which the “inhibition (INH)” value in the assay on Rattus norvegicus [1] was 7.39%; with Rattus norvegicus [2] it was 19.49%; with Rattus norvegicus [3], 20.38%; in the assay on Rattus norvegicus [4] it was 34.6%.
Take `COc1ccc(-n2c(-c3ccccc3)c(-c3ccccc3)c3c(-n4nc(C)cc4C)ncnc32)cc1`: the “inhibition (INH)” value in the assay with Rattus norvegicus [1] is given as 0%; in the assay with Rattus norvegicus [2] it was 63.24%; with Rattus norvegicus [3], 6.41%; with Rattus norvegicus [4], 74.6%.
Taken in the same sequence, the figures for `COc1ccc(-n2c(-c3ccccc3)c(-c3ccccc3)c3c2ncn2cnnc32)cc1` were 8.69%, 27.94%, 15.77% and 47.62%.
Taken in the same sequence, the figures for `COc1ccc(-n2cc(-c3ccccc3)c3c2ncn2c(=S)[nH]nc32)cc1` were 0%, 28.31%, 0% and 47.62%.
Taken in the same sequence, the figures for `COc1ccc(-n2cc(-c3ccccc3)c3c(N/N=C/c4ccccc4)ncnc32)cc1` were 23.04%, 62.68%, 30.77% and 66.19%.
As to `COc1ccc(-n2cc(-c3ccccc3)c3c2ncn2c(C)nnc32)cc1`, the “inhibition (INH)” value is reported as 15.94% with Rattus norvegicus [1], 27.8% in the assay with Rattus norvegicus [2], 0.5416% in the assay with Rattus norvegicus [3] and 35.98% with Rattus norvegicus [4].
Taken in the same sequence, the figures for `COc1ccc(-n2cc(-c3ccccc3)c3c2ncn2cnnc32)cc1` were 0%, 33.46%, 0% and 36.19%.
Taken in the same sequence, the figures for `Cc1ccc(-n2c(-c3ccccc3)c(-c3ccccc3)c3c2ncn2c(C)nnc32)cc1` were 7.39%, 16.91%, 10% and 23.81%.
Taken in the same sequence, the figures for `COc1ccc(-n2cc(-c3ccccc3)c3c(-n4nc(C)cc4C)ncnc32)cc1` were 7.82%, 35.66%, 23.85% and 61.9%.
In the case of `Cc1ccc(-n2cc(-c3ccccc3)c3c2ncn2c(=S)[nH]nc32)cc1`, the “inhibition (INH)” value came to 3.04% in the assay with Rattus norvegicus [1], 33.8% in the assay on Rattus norvegicus [2], 19.23% with Rattus norvegicus [3] and 39.21% in the assay with Rattus norvegicus [4].
For `COc1ccc(-n2c3c(c(-c4ccccc4)c2-c2ccccc2)C2=NNC(=O)CN2C=N3)cc1` the same measures were 0%, 15.44%, 0% and 32.8%.
For `Cc1ccc(-n2cc(-c3ccccc3)c3c(Cl)ncnc32)cc1` the same measures were 1.3%, 31.25%, 1.92% and 18.25%.
Regarding `COc1ccc(-n2cc(-c3ccccc3)c3c(NN)ncnc32)cc1`, the “inhibition (INH)” value stood at 23.04% in the assay on Rattus norvegicus [1], 41.73% with Rattus norvegicus [2], 8.85% in the assay on Rattus norvegicus [3] and 50.26% in the assay on Rattus norvegicus [4].
For `Cc1ccc(-n2c(-c3ccccc3)c(-c3ccccc3)c3c(Cl)ncnc32)cc1` the same measures were 3.92%, 31.43%, 10% and 28.59%.
For `Cc1ccc(-n2c(-c3ccccc3)c(-c3ccccc3)c3c2ncn2cnnc32)cc1` the same measures were 0%, 15.07%, 0% and 44.44%.

For the origin of these results see ChEMBL document CHEMBL3046471, “Evaluation of the anti-inflammatory activity of some pyrrolo[2,3-d]pyrimidine derivatives” (2013).
